Assay results: patent publication US20250179059A1 (The Regents of the University of California, priority 2021, published 2025)
pIC50: −log10 of the molar value. Like-named read-outs stand apart in the source and are kept apart here.

Tests used:
human BRD4 bromodomain I = target: T1, human BRD4 bromodomain I (Homo sapiens, UniProt O60885); test: Bromodomain binding assay (AlphaScreen), BRD4 BDI; conditions: Table C1
T1 construct: human BRD4 bromodomain I [residues 44-170]; host or cells: E. coli
Protocol: Bromodomain Binding Assay
The bromodomain binding assay utilizes AlphaScreen technology. Compounds compete with a biotinylated peptide ligand (from histone H4: aa 1-21, K5/K8/K12/K16Ac-biotin) for binding to a hexahistidine (His6)-tagged bromodomain. Peptide binding is detected by fluorescence signal after singlet oxygen energy transfer from peptide-bound AlphaScreen streptavidin-coated donor beads to His6-tagged bromodomain-bound nickel-chelate acceptor beads (PerkinElmer). Briefly, 8 μL 2.5× bromodomain (E. coli expressed, N-terminal His6-tagged human BRD4 bromodomain II [based on Genbank NM_058243, residues 349-460] or N-terminal His6-tagged human BRD4 bromodomain I [residues 44-170]) in reaction buffer (50 mM HEPES [pH 7.5], 100 mM NaCl, 0.05% CHAPS, 0.1% BSA, 1% DMSO) is added to wells of an assay plate (384-well low flange white, flat bottom, polystyrene microplate, Corning #3572; buffer only is added to some wells as a negative control). A compound concentration series (10 concentrations, 3-fold serial dilutions previously prepared in 100% DMSO, or 100% DMSO only negative control) is delivered to the assay plate with an Echo 550 acoustic liquid handler (Labcyte), followed by plate centrifugation and incubation for 30 minutes at room temperature. Then 4 μL 5× biotinylated peptide ligand is added, followed by plate centrifugation and gentle shaking for 30 minutes at room temperature to mix. After this incubation, 4 μL 5× donor beads are added, and the plate is centrifuged, followed by brief gentle shaking to mix. Finally, 4 μL 5× acceptor beads are added, and the plate is centrifuged, followed by gentle shaking for 60 minutes at room temperature in the dark. AlphaScreen signal (excitation/emission: 680 nm/520-620 nm) is detected with an EnSpire multimode plate reader (PerkinElmer). Percentage peptide binding is plotted as a function of concentration, and curve fitting is used to determine competitive compound binding ICsos.

[1] = target: T2, human BRD4 bromodomain II (Homo sapiens, UniProt O60885); test: Bromodomain binding assay (AlphaScreen), BRD4 BDII
T2 construct: human BRD4 bromodomain II [based on Genbank NM_058243, residues 349-460]; host or cells: E. coli
In short: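 E. coli-expressed N-terminal His6-tagged human BRD4 BDII (residues 349-460) or BDI (residues 44-170) was preincubated 30 min at room temperature with compound (10-point, 3-fold) in pH 7.5 HEPES buffer, 1% DMSO. Displacement of biotinylated tetra-acetylated H4 1-21 peptide was read by AlphaScreen, and IC50 came from curve fitting.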

[2] = tested on: human SKM-1 acute myeloid leukemia cells; test: SKM-1 antiproliferation cell-based assay (ATPlite); conditions: Homo sapiens
In short: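 Log-phase cells in RPMI 1640/15% FBS were seeded at 34722 cells/mL and exposed for 4 days to nine-concentration DMSO serial dilutions in triplicate. Viability was read as ATP luminescence (ATPlite 1step), and IC50 values came from variable-slope non-linear regression.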

[3] = AlphaScreen assay, Table C1, read-out: BRD4 BDII IC50
[4] = AlphaScreen assay, Table C2, read-out: BRD4 BDII IC50
[5] = BRD4 BDII AlphaScreen assay, read-out: BRD4 BD2 IC50
[6] = SKM-1, SKM-1 antiproliferation assay

Q: How did the pIC50 (human BRD4 bromodomain I) turn out when CC(=O)Nc1ccc(-c2cccc(-c3cc(N4CCNCC4)no3)c2O)cc1 [Example 3, N-(2′-Hydroxy-3′-(3-(piperazin-1-yl)isoxazol-5-yl)-[1,1′-biphenyl]-4-yl)acetamide] was run?
A: Its pIC50 is less than 7.00.

Q: And the pIC50 [1, 3]?
A: The pIC50 was 7.00 to 8.00.

Q: What about the pIC50 [1, 4] of the same compound?
A: The pIC50 was 7.00 to 8.00.

Q: CC(=O)Nc1ccc(-c2cccc(-c3cc(N4CCN(C)CC4)no3)c2O)cc1 [Example 6, N-(2′-Hydroxy-3′-(3-(4-methylpiperazin-1-yl)isoxazol-5-yl)-[1,1′-biphenyl]-4-yl)acetamide] was tested. Which pIC50 (human BRD4 bromodomain I) did it give?
A: Its pIC50 is less than 7.00.

Q: What about the pIC50 [1, 3] of the same compound?
A: The pIC50 was 7.00 to 8.00.

Q: And the pIC50 [1, 4]?
A: Its pIC50 is 7.00 to 8.00.

Q: What does the source list for CC(=O)Nc1ccc(-c2cccc(-c3cccc(N4CCOCC4)c3)c2O)cc1F [Example 95, N-(3-Fluoro-2′-hydroxy-3″-morpholino-[1,1′:3′,1″-terphenyl]-4-yl)acetamide]?
A: pIC50 (human BRD4 bromodomain I): < 7.00; pIC50 [1, 3]: 7.00 to 8.00; pIC50 [1, 4]: 7.00 to 8.00

Q: With COc1ncc(-c2nc(C)cc(-c3ccc(-n4ccn(C)c4=O)c(Cl)c3)c2O)cc1N1CC[C@]2(CCN2C(C)C)C1 [Example 1022, (R)-1-(2-chloro-4-(3-hydroxy-5′-(1-isopropyl-1,6-diazaspiro[3.4]octan-6-yl)-6'-methoxy-6-methyl-[2,3′-bipyridin]-4-yl)phenyl)-3-methyl-1,3-dihydro-2H-imidazol-2-one] as the compound, how does the pIC50 [1, 5] read?
A: The pIC50 was 9.00 to 11.00.

Q: And the GI50 [2, 6]?
A: Its GI50 is 0.3 to 30 nM.

Q: COc1ncc(-c2nc(C)cc(-c3ccc(-n4ccn(C)c4=O)c(Cl)c3)c2O)cc1N1CC[C@@]2(CCN2C(C)C)C1 [Example 1023, (S)-1-(2-chloro-4-(3-hydroxy-5′-(1-isopropyl-1,6-diazaspiro[3.4]octan-6-yl)-6'-methoxy-6-methyl-[2,3′-bipyridin]-4-yl)phenyl)-3-methyl-1,3-dihydro-2H-imidazol-2-one] was tested. Which pIC50 [1, 5] did it give?
A: The pIC50 was 9.00 to 11.00.

Q: And the GI50 [2, 6]?
A: The GI50 was 0.3 to 30 nM.

Q: Which results are given for Cn1ccn(-c2ccc(-c3cc(Cl)cc(-c4cccc(N5CCN(C(C)(C)C)CC5)c4)c3O)cc2Cl)c1=O [Example 1024, 1-(3″-(4-(tert-butyl)piperazin-1-yl)-3,5′-dichloro-2′-hydroxy-[1,1′:3′,1″-terphenyl]-4-yl)-3-methyl-1H-imidazol-2(3H)-one]?
A: pIC50 [1, 5]: 8.00 to 9.00; GI50 [2, 6]: 0.3 to 30 nM

Q: Cn1ccn(-c2ccc(-c3cc(C(F)(F)F)cc(-c4cccc(N5CCN(C(C)(C)C)CC5)c4)c3O)cc2Cl)c1=O [Example 1025, 1-(3″-(4-(tert-butyl)piperazin-1-yl)-3-chloro-2′-hydroxy-5′-(trifluoromethyl)-[1,1′:3′,1″-terphenyl]-4-yl)-3-methyl-1H-imidazol-2(3H)-one] was tested. Which pIC50 [1, 5] did it give?
A: The pIC50 was 8.00 to 9.00.

Q: And the GI50 [2, 6]?
A: The GI50 was 300 to 3000 nM.

Q: How did the pIC50 [1, 5] turn out when Cc1cc(-c2ccc(-n3ccn(C)c3=O)c(Cl)c2)c(O)c(-c2cc(F)c(F)c(N3CCN(C(C)(C)C)CC3)c2)n1 [Example 1026, 1-(4-(2-(3-(4-(tert-butyl)piperazin-1-yl)-4,5-difluorophenyl)-3-hydroxy-6-methylpyridin-4-yl)-2-chlorophenyl)-3-methyl-1H-imidazol-2(3H)-one] was run?
A: Its pIC50 is 9.00 to 11.00.

Q: And the GI50 [2, 6]?
A: The GI50 was 0.3 to 30 nM.

Q: How did the pIC50 [1, 5] turn out when Cc1cc(-c2ccc(-n3ccn(C)c3=O)c(Cl)c2)c(O)c(-c2cc(N3CCN(C(C)(C)C)CC3)cc(F)c2F)n1 [Example 1027, 1-(4-(2-(5-(4-(tert-butyl)piperazin-1-yl)-2,3-difluorophenyl)-3-hydroxy-6-methylpyridin-4-yl)-2-chlorophenyl)-3-methyl-1H-imidazol-2(3H)-one] was run?
A: Its pIC50 is 9.00 to 11.00.

Q: And the GI50 [2, 6]?
A: Its GI50 is 0.3 to 30 nM.

Q: How did the pIC50 [1, 5] turn out when COc1cc(-c2ccc(-n3ccn(C)c3=O)c(Cl)c2)c(O)c(-c2cccc(N3CCN(C(C)(C)C)CC3)c2)n1 [Example 1028, 1-(4-(2-(3-(4-(tert-Butyl)piperazin-1-yl)phenyl)-3-hydroxy-6-methoxypyridin-4-yl)-2-chlorophenyl)-3-methyl-1H-imidazol-2(3H)-one] was run?
A: The pIC50 was 8.00 to 9.00.

Q: And the GI50 [2, 6]?
A: Its GI50 is 0.3 to 30 nM.

Q: How did the pIC50 [1, 5] turn out when Cn1ccn(-c2ccc(-c3cc(F)nc(-c4cccc(N5CCN(C(C)(C)C)CC5)c4)c3O)cc2Cl)c1=O [Example 1029, 1-(4-(2-(3-(4-(tert-Butyl)piperazin-1-yl)phenyl)-6-fluoro-3-hydroxypyridin-4-yl)-2-chlorophenyl)-3-methyl-1H-imidazol-2(3H)-one] was run?
A: The pIC50 was 9.00 to 11.00.

Q: And the GI50 [2, 6]?
A: Its GI50 is 0.3 to 30 nM.

Q: How did the pIC50 [1, 5] turn out when Cn1cc(-c2cccc(N3CCN(C(C)(C)C)CC3)c2)c(O)c(-c2ccc(-n3ccn(C)c3=O)c(Cl)c2)c1=O [Example 1030, 5-(3-(4-(tert-Butyl)piperazin-1-yl)phenyl)-3-(3-chloro-4-(3-methyl-2-oxo-2,3-dihydro-1H-imidazol-1-yl)phenyl)-4-hydroxy-1-methylpyridin-2(1H)-one] was run?
A: Its pIC50 is 7.00 to 8.00.

Q: And the GI50 [2, 6]?
A: The GI50 was 300 to 3000 nM.

Q: Which results are given for CNc1cc(-c2ccc(-n3ccn(C)c3=O)c(Cl)c2)c(O)c(-c2cccc(N3CCN(C(C)(C)C)CC3)c2)n1 [Example 1031, 1-(4-(2-(3-(4-(tert-Butyl)piperazin-1-yl)phenyl)-3-hydroxy-6-(methylamino)pyridin-4-yl)-2-chlorophenyl)-3-methyl-1H-imidazol-2(3H)-one]?
A: pIC50 [1, 5]: 8.00 to 9.00; GI50 [2, 6]: 30 to 300 nM

Q: Cc1cc(-c2ccc(-n3ccn(C)c3=O)c(Cl)c2)c(O)c(-c2ccnc(N3CCC4(CCC(=O)N4)C3)c2)n1 (stereo not drawn) [Example 1032, 7-(4-(3-chloro-4-(3-methyl-2-oxo-2,3-dihydro-1H-imidazol-1-yl)phenyl)-3-hydroxy-6-methyl-[2,4′-bipyridin]-2′'-yl)-1,7-diazaspiro[4.4]nonan-2-one] was tested. Which pIC50 [1, 5] did it give?
A: Its pIC50 is 9.00 to 11.00.

Q: And the GI50 [2, 6]?
A: Its GI50 is 0.3 to 30 nM.

Q: Which results are given for Cc1cc(-c2ccc(-n3cc[nH]c3=O)c(Cl)c2)c(O)c(-c2cccc(N3CCN(C(C)(C)C)CC3)c2)n1 [Example 1035, 1-(4-(2-(3-(4-(tert-butyl)piperazin-1-yl)phenyl)-3-hydroxy-6-methylpyridin-4-yl)-2-chlorophenyl)-1,3-dihydro-2H-imidazol-2-one]?
A: pIC50 [1, 5]: 7.00 to 8.00; GI50 [2, 6]: 30 to 300 nM

Q: How did the pIC50 [1, 5] turn out when Cc1cc(-c2ccc(-n3ccn(C)c3=O)c(Cl)c2)c(O)c(-c2ccnc(N3CC(F)(F)[C@@](C)(O)C3)c2)n1 [Example 1036, (S)-1-(2-chloro-4-(2′-(3,3-difluoro-4-hydroxy-4-methylpyrrolidin-1-yl)-3-hydroxy-6-methyl-[2,4′-bipyridin]-4-yl)phenyl)-3-methyl-1,3-dihydro-2H-imidazol-2-one] was run?
A: Its pIC50 is 8.00 to 9.00.

Q: And the GI50 [2, 6]?
A: Its GI50 is 30 to 300 nM.

Q: What does the source list for Cc1cc(-c2ccc(-n3ccn(C)c3=O)c(Cl)c2)c(O)c(-c2ccnc(N3CC(F)(F)[C@](C)(O)C3)c2)n1 [Example 1037, (R)-1-(2-chloro-4-(2′-(3,3-difluoro-4-hydroxy-4-methylpyrrolidin-1-yl)-3-hydroxy-6-methyl-[2,4′-bipyridin]-4-yl)phenyl)-3-methyl-1,3-dihydro-2H-imidazol-2-one]?
A: pIC50 [1, 5]: 8.00 to 9.00; GI50 [2, 6]: 0.3 to 30 nM

Q: With CC(C)(C)N1CCN(c2cccc(-c3nccc(-c4ccc(-n5cc[nH]c5=O)c(Cl)c4)c3O)c2)CC1 [Example 1038, 1-(4-(2-(3-(4-(tert-butyl)piperazin-1-yl)phenyl)-3-hydroxypyridin-4-yl)-2-chlorophenyl)-1H-imidazol-2(3H)-one] as the compound, how does the pIC50 [1, 5] read?
A: The pIC50 was 7.00 to 8.00.

Q: What about the GI50 [2, 6] of the same compound?
A: The GI50 was 30 to 300 nM.

Q: With COc1ncc(-c2nc(C)cc(-c3ccc(-n4ccn(C)c4=O)c(Cl)c3)c2O)cc1N1CC2CCC(C1)N2C(C)C [Example 1039, 1-(2-chloro-4-(3-hydroxy-5′-(8-isopropyl-3,8-diazabicyclo[3.2.1]octan-3-yl)-6′-methoxy-6-methyl-[2,3′-bipyridin]-4-yl)phenyl)-3-methyl-1H-imidazol-2(3H)-one] as the compound, how does the pIC50 [1, 5] read?
A: Its pIC50 is 8.00 to 9.00.

Q: What about the GI50 [2, 6] of the same compound?
A: The GI50 was 0.3 to 30 nM.

Q: With Cn1ccn(-c2ccc(-c3cc(=O)[nH]c(-c4cccc(N5CCN(C(C)(C)C)CC5)c4)c3O)cc2Cl)c1=O [Example 1040, 6-(3-(4-(tert-Butyl)piperazin-1-yl)phenyl)-4-(3-chloro-4-(3-methyl-2-oxo-2,3-dihydro-1H-imidazol-1-yl)phenyl)-5-hydroxypyridin-2(1H)-one] as the compound, how does the pIC50 [1, 5] read?
A: The pIC50 was 7.00 to 8.00.

Q: And the GI50 [2, 6]?
A: The GI50 was 300 to 3000 nM.

Q: How did the pIC50 [1, 4] turn out when CN1CCN(c2ccc(-c3cc(F)cc(-c4ccc(OC5CCNCC5)nc4)c3O)cc2Cl)C1=O [compound 446, 1-(3-chloro-5′-fluoro-2′-hydroxy-3′-(6-(piperidin-4-yloxy)pyridin-3-yl)-[1,1′-biphenyl]-4-yl)-3-methylimidazolidin-2-one] was run?
A: Its pIC50 is 7.00 to 8.00.

Q: And the GI50 ([2]; SKM-1, 96 h, SKM-1 antiproliferation assay, 4 days, Table C2)?
A: Its GI50 is 300 to 3000 nM.
